{"source": "patent US20050010054A1", "about": "“Preparation of crystalline polymorphs of fosinopril sodium” (priority 2001, published 2005)", "key": {"[1]": {"settings": "polymorph A versus polymorph B; as stated in EP-B-0442378; cited from earlier work"}, "[2]": {"assay": "Hydration of the solid under air exposure", "settings": "form B from methanol solutions evaporated in an atomizer at room temperature"}, "[3]": {"assay": "Hydrolytic degradation in mixtures of ketonic or alcoholic solvents and water", "assay_type": "physicochemical", "settings": "forms fosinoprilate, increases with time, higher temperature and higher water content", "excerpt": "This hydrolytic degradation increases with time and with higher temperature and higher water content of the solvent."}}, "data": [{"smiles": "CCC(=O)O[C@@H](O[P@](=O)(CCCCc1ccccc1)CC(=O)N1C[C@H](C2CCCCC2)C[C@H]1C(=O)[O-])C(C)C.[Na+]", "note": "[polymorph A, sodium salt of fosinopril]", "values": [{"measurement": "relative thermodynamic stability of polymorphs", "setting": "[1]", "result": "more stable one from the thermodynamic point of view"}]}, {"smiles": "CCC(=O)O[C@@H](O[P@](=O)(CCCCc1ccccc1)CC(=O)N1C[C@H](C2CCCCC2)C[C@H]1C(=O)[O-])C(C)C.[Na+]", "note": "[form B, sodium salt of fosinopril]", "values": [{"measurement": "hydration under air exposure", "setting": "[2]", "result": "spontaneously hydrated under air exposure"}]}, {"smiles": "CCC(=O)O[C@@H](O[P@](=O)(CCCCc1ccccc1)CC(=O)N1C[C@H](C2CCCCC2)C[C@H]1C(=O)[O-])C(C)C.[Na+]", "note": "[sodium fosinopril, sodium salt of fosinopril]", "values": [{"measurement": "hydrolytic stability in solution", "setting": "[3]", "result": "undergoes hydrolysis"}]}]}
